Assay results as given in article PMC5653977 (EMBO Molecular Medicine, 2017).
Like-named read-outs stand apart in the source and are kept apart here.

Assays:
[1] = system: pyramidal neurons of the prefrontal cortex; assay: Spontaneous inhibitory postsynaptic currents (sIPSCs) in acute prefrontal cortex slices; assay type: cell-based, mouse; conditions: 10 μM, bath application
Experimental: 300‐μm‐thick transverse slices comprising the medial prefrontal cortex (mPFC) area were prepared from 7‐ to 8‐week‐old C57Bl/6 mice as described previously (Teng et al, 2013; Agarwal et al, 2014). All recordings were performed in cortical layer V projection neurons. The bath solution consisted of oxygenated artificial cerebrospinal fluid (ACSF) containing NaCl 126 mM, KCl 3 mM, NaH2PO4 1.25 mM, MgSO4 1 mM, NaHCO3 26 mM, CaCl2 2 mM, glucose 10 mM, and the pH 7.2 adjusted with NaOH. Spontaneous GABAergic inhibitory postsynaptic currents (sIPSC) and evoked GABAergic inhibitory postsynaptic currents (eIPSC) were recorded at a holding potential of −70 mV in the presence of 6‐cyano‐7‐nitroquinoxaline‐2,3‐dione (CNQX, 10 μM) and DL‐2‐amino‐5‐phosphonovaleric acid (D‐APV, 50 μM). Glass pipettes were filled with the solution containing: KCl 140 mM, MgCl2 2 mM, CaCl2 1 mM, Na2GTP 0.5 mM, Na2ATP 4 mM, EGTA 10 mM, HEPES 10 mM. Patches with a series resistance of > 25 MΩ, a membrane resistance of < 0.8 GΩ, or leak currents of > 150 pA were excluded. Biphasic rectangular electric pulses (10 ms, 100–300 μA) were applied to layer I of the prelimbic area of mPFC through another glass pipette filled with ACSF. Synaptic currents were acquired at 20 kHz and filtered at 6 kHz, with a Digidata 1440 ADC‐converter coupled to a Multiclamp 700B amplifier (Molecular Devices, USA). Data acquisition was performed using pClamp10 software (Molecular Devices). MiniAnalysis 6.0.9 (Synaptosoft Inc., Decatur, USA) and pClamp10.1 were used for amplitude and frequency analysis of sIPSCs and eIPSCs, respectively. Paired Student's t‐test was used for statistical analysis.

[2] = set-up: method as in Wu et al, 2012; conditions: ref Wu et al, 2012; cited from earlier work
Limk1 = assay: Western blot of phospho-Limk1 in prefrontal cortex of spironolactone-treated mice; assay type: in vivo, mouse; conditions: Nrg1-tg mice, 50 mg/kg s.c. daily for 21 days, prefrontal cortex lysates
Experimental: (§1) For the generation of lysates, the isolated tissue was immediately placed into cooled (4°C) sucrose buffer (320 mM sucrose, 10 mM Tris–HCl, 1 mM NaHCO3, 1 mM MgCl2, supplemented with 10 mM NaF, 1 mM […], 1 mM ZnCl2, 4.5 mM Na4P20_7 as phosphatase inhibitors, and the complete protease inhibitor cocktail (Roche)), homogenized using an ultra‐turrax (IKA GmbH, Staufen, Germany), sonicated (3 pulses for 10 s), and denatured for 10 min at 70°C in LDS sample buffer.
(§2) Each blot was replicated two times.
(§3) Treatment was continued throughout the behavioral analysis period. To avoid injection‐induced stress prior to behavioral testing, mice were injected in the afternoon, after the entire cohort has completed the behavioral paradigm.

[3] = target: EGFR-NTEV-tevS-GV + ERBB2-CTEV (Homo sapiens, UniProt P00533+P04626); assay: ERBB dimerization split TEV assay EGFR/ERBB2; assay type: cell-based; conditions: 10 ng/ml EGFld
Description: (§4) Gateway recombination cloning (Life Technologies) was applied for generating plasmids. Each ORF cloned was PCR‐amplified using the Pwo proofreading DNA polymerase (Roche) and BP‐recombined into the pDONR/Zeo plasmid (Life Technologies) to yield an entry vector, which was control‐digested using BsrGI to release the insert, and sequence‐verified. The following human ORFs were cloned using cDNA image clones ordered from Source BioScience: ERBB4 transcript variant JM‐a/CYT‐1 (Accession: BC112199), PIK3R1 (BC094795), GRB2 transcript variant 1 (BC000631), SHC1 transcript variant 2 (BC014158), STAT5A (BC027036), and SRC transcription variant 1 (BC051270). For EGFR, ERBB2, and ERBB3, entry vectors were obtained from the human CCSB kinase collection available from Addgene (Johannessen et al, 2010). Entry vectors were LR‐recombined into split TEV destination vectors [either pcDNA_attR1‐ORF‐attR2‐NTEV‐tevS‐GV‐2xHA_DEST or pTag4C_attR1‐ORF‐attR2‐CTEV‐2xHA_DEST, plasmids were described in detail before (Wehr et al, 2006)] to yield expression vectors, which were control‐digested using BsrGI. The plasmids for Nrg1 type I β1a and rat Nrg1 type III β1a have been described before (Wehr et al, 2006).

AKT = assay: Western blot of pAKT in prefrontal cortex of spironolactone-treated mice; assay type: in vivo, mouse; conditions: Nrg1-tg and wt mice, 50 mg/kg s.c. daily for 21 days, prefrontal cortex lysates
Experimental: as §1, §2, §3

Nrg1-tg and wt mice [4] = assay: Light-dark preference test; assay type: in vivo, mouse; conditions: 50 mg/kg s.c. daily
Experimental: (§5) For behavioral testing, age‐matched male mice (8–16 weeks) on C57Bl/6 background that constitutively overexpress the 2xHA‐tagged Nrg1 type III β1a isoform (Nrg1‐tg) under the control of the mouse Thy1.2 promoter (Velanac et al, 2012) and their wild‐type (wt) littermates as controls were used. Animals were group‐housed in the same ventilated sound‐attenuated rooms under a 12‐h light/12‐h dark schedule (lights on at 8:00 am) at an ambient temperature of 21°C with food and water available ad libitum. One week prior to experiments, mice were separated into single cages and habituated to the experimental rooms. To minimize the influence of the circadian rhythm on drug actions, the treatment groups were analyzed at balanced time points during the light phase. […] All animal experiments were conducted in accordance with NIH principles of laboratory animal care and were approved by the Government of Lower Saxony, Germany, in accordance with the German Animal Protection Law.
as §3

Nrg1-tg and wt mice [5] = assay: Fear conditioning; assay type: in vivo, mouse; conditions: 50 mg/kg s.c. daily
Experimental: as §5, §3

[6] = set-up: method as in Zhou et al, 2011; Rimmele et al, 2013; conditions: acute administration; ref Zhou et al, 2011; Rimmele et al, 2013; cited from earlier work
[7] = set-up: method as in Juruena et al, 2009; conditions: ref Juruena et al, 2009; cited from earlier work
EGFR dimers = EGFR dimers (Homo sapiens, UniProt P00533); assay: ERBB dimerization split TEV assay EGFR/EGFR; assay type: cell-based
Description: as §4

EGFR dimers, sequence (P00533 25-1210): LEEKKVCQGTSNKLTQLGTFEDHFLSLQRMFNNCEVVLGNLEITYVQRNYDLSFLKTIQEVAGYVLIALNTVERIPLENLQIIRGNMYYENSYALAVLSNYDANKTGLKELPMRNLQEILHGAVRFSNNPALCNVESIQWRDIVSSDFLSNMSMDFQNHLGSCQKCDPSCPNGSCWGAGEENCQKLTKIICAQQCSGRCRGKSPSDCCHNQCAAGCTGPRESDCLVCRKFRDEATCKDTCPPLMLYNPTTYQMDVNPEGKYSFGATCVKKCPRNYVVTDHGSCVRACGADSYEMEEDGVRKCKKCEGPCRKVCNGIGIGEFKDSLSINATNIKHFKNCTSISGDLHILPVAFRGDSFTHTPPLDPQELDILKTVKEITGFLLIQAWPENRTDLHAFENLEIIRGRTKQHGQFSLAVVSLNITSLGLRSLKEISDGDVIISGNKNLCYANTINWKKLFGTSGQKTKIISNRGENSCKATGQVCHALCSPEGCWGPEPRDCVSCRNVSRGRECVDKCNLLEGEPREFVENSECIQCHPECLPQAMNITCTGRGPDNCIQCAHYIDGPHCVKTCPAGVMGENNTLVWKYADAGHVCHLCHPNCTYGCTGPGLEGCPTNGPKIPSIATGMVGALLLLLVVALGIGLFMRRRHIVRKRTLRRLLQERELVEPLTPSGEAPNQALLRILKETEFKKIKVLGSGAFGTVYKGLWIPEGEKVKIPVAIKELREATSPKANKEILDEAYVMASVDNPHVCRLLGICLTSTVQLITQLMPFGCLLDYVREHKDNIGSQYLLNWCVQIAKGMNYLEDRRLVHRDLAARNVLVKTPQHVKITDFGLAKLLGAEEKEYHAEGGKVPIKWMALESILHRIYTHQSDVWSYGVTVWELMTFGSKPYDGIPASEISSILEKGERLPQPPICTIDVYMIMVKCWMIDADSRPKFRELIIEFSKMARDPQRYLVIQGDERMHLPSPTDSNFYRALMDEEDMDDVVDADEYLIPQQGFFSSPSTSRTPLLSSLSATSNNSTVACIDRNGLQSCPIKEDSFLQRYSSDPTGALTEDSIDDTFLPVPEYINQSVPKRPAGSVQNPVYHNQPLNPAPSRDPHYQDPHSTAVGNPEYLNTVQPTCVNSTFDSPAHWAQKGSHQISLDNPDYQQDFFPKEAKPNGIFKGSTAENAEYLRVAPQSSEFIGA
EGFR dimers, sequence (P00533 25-1210): as above
EGFR-NTEV-tevS-GV + ERBB2-CTEV, sequence (P00533 25-1210): as above
EGFR-NTEV-tevS-GV + ERBB2-CTEV, sequence (P04626 23-1255): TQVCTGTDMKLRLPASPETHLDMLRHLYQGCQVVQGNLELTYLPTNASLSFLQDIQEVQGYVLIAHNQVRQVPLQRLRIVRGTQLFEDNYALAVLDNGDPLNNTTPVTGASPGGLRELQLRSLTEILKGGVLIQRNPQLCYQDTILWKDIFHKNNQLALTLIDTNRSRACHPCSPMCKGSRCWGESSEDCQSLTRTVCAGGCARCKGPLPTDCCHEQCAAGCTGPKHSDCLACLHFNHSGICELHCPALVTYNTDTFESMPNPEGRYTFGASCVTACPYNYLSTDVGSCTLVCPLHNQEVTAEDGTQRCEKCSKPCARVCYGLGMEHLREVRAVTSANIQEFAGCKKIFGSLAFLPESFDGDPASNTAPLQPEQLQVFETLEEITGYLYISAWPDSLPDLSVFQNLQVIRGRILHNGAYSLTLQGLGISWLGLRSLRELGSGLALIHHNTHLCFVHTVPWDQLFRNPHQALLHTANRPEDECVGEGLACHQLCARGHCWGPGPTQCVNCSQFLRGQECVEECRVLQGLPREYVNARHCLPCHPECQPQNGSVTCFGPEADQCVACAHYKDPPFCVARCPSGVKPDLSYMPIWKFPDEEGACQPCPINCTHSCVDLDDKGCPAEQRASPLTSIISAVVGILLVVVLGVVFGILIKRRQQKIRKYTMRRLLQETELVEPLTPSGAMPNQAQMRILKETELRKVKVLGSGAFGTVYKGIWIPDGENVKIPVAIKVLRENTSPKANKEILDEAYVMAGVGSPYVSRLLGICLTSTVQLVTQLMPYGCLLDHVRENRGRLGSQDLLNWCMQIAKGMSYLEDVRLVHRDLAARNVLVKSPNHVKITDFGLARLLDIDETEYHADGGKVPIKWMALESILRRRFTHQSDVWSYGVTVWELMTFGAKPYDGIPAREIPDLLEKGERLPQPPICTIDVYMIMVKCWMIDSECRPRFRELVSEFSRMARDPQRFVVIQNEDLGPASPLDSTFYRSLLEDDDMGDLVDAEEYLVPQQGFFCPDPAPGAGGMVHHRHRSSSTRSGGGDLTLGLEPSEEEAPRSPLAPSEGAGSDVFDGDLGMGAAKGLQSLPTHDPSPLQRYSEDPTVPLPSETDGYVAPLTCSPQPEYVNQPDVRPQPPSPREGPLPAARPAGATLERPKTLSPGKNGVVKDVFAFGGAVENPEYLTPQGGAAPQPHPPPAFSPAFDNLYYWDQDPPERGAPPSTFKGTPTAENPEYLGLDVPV

CC(=O)S[C@@H]1CC2=CC(=O)CC[C@]2(C)[C@H]2CC[C@@]3(C)[C@@H](CC[C@@]34CCC(=O)O4)[C@H]12 [Spironolactone]
sIPSC amplitude [1]: increase
sIPSC frequency [1]: increase
motivation and curiosity in mice [2]: increase motivation and curiosity
phospho-Limk1 levels (Limk1): markedly upregulated
IC50 [3]: 4.66 µM
pAKT (downstream signaling) (AKT): neither modulated by Nrg1 overexpression, nor by spironolactone treatment
time in the light compartment (Nrg1-tg and wt mice [4]): spent more time in the light compartment
cue memory (Nrg1-tg and wt mice [5]): neither genotype nor treatment‐dependent alterations
freezing in the contextual fear memory test (Nrg1-tg and wt mice [5]; Nrg1-tg mice): non‐significant reduction in freezing
memory retrieval in healthy human volunteers [6]: reduced memory retrieval
anxiety in a small group of patients suffering from bipolar disorder [7]: partially improved
IC50 (EGFR dimers; 100 ng/ml EGF as stimulus, read-out: IC50, EGFR dimers, stimulus EGF): 1.74 µM
IC50 (EGFR dimers; PC12 cells, 10 ng/ml EGFld, read-out: IC50, EGFR-NTEV-tevS-GV + EGFR-CTEV): 8.5 µM
